Test results reported in patent US20110039721A1, “METHOD FOR PREDICTION ABOUT CARCINOGENICITY OF SUBSTANCE IN RODENT” (Chemicals Evaluation and Research Institute, priority 2007, published 2011).

Assays:
[1] = system: mRNA expressed from the genes (A) to (D) in rat liver; assay: Behavior of genes (mRNA expression level, oligo-DNA microarray) in rat liver after 28-day oral administration; format: in vivo
Description: A test solution was prepared by dissolving each of the carcinogens and the non-carcinogens shown in Tables 2 to 6 in the corresponding solvent shown in Tables 2 to 6. Each of the thus prepared test solutions and the solvents used for the preparation was administered by oral gavage to rats in each group. As the rats, male rats (F344 SPF rats) at 5 weeks of age obtained from Charles River Laboratories Japan, Inc. were used. The animals were divided into groups, each containing four individuals. The volume of the solvent administered to the vehicle control group was set to the same volume as that of the test solution administered to the carcinogen administration group or the non-carcinogen administration group. The administration of the test solution or the solvent was performed once daily for 28 days. Apiece was excised from the liver of each of the rats after a lapse of 28 days from the initiation of the administration, and the total RNA was extracted and purified.
The expression level of mRNA was compared between each of the chemical substance administration groups and the corresponding vehicle control group, and genes that satisfy the requirements described in (A) to (D) were selected, respectively.
The case where the expression level of mRNA in the carcinogen administration group or the non-carcinogen administration group is 1.5 times or more or 1/1.5 or less of the expression level of the corresponding mRNA expressed in the control group was determined to be significant. In this connection, the determination as to whether or not the change is significant was performed by taking into consideration the direction of increase or decrease in the expression level. In the case where the direction of increase or decrease is different as compared with the case where another carcinogen was administered, the change was determined to be not significant.

[2] = system: rodent; details: classification of the substance (C+/C−); cited from earlier work
[3] = gene group (A), Unigene No. Rn.167075
[4] = gene group (C), Unigene No. Rn.120914

O=C(c1ccccc1)C(O)c1ccccc1 (centres unmarked) [TS038, Benzoin]
C−: Carcinogenicity [2]
−: Behavior of gene caused by administration of chemical substance, Gene No. 4846 ([1]; gene group (A), Unigene No. Rn.144554) | Behavior of gene caused by administration of chemical substance, Gene No. 4218 [1, 3] | Behavior of gene caused by administration of chemical substance, Gene No. 6182 ([1]; gene group (A), Unigene No. Rn.5834) | Behavior of gene caused by administration of chemical substance, Gene No. 5600 ([1]; gene group (A), Unigene No. Rn.9836) | Behavior of gene caused by administration of chemical substance, Gene No. 1494 ([1]; gene group (B), Unigene No. Rn.1430) | Behavior of gene caused by administration of chemical substance, Gene No. 2045 ([1]; gene group (B), Unigene No. Rn.19329) | Behavior of gene caused by administration of chemical substance, Gene No. 2203 ([1]; gene group (B), Unigene No. Rn.21240) | Behavior of gene caused by administration of chemical substance, Gene No. 533 ([1]; gene group (C), Unigene No. Rn.106184) | Behavior of gene caused by administration of chemical substance, Gene No. 725 ([1]; gene group (C), Unigene No. Rn.108075) | Behavior of gene caused by administration of chemical substance, Gene No. 1163 ([1]; gene group (C), Unigene No. Rn.11766) | Behavior of gene caused by administration of chemical substance, Gene No. 1334 [1, 4] | Behavior of gene caused by administration of chemical substance, Gene No. 6620 [1, 4] | Behavior of gene caused by administration of chemical substance, Gene No. 5878 ([1]; gene group (C), Unigene No. Rn.143213) | Behavior of gene caused by administration of chemical substance, Gene No. 1131 ([1]; gene group (C), Unigene No. Rn.144946) | Behavior of gene caused by administration of chemical substance, Gene No. 1562 ([1]; gene group (C), Unigene No. Rn.14744) | Behavior of gene caused by administration of chemical substance, Gene No. 1741 ([1]; gene group (C), Unigene No. Rn.1647) | Behavior of gene caused by administration of chemical substance, Gene No. 893 ([1]; gene group (C), Unigene No. Rn.164817) | Behavior of gene caused by administration of chemical substance, Gene No. 813 ([1]; gene group (C), Unigene No. Rn.201760) | Behavior of gene caused by administration of chemical substance, Gene No. 2494 ([1]; gene group (C), Unigene No. Rn.23969) | Behavior of gene caused by administration of chemical substance, Gene No. 3776 ([1]; gene group (C), Unigene No. Rn.43232) | Behavior of gene caused by administration of chemical substance, Gene No. 3929 ([1]; gene group (C), Unigene No. Rn.4620) | Behavior of gene caused by administration of chemical substance, Gene No. 6742 ([1]; gene group (C), Unigene No. Rn.9779) | Behavior of gene caused by administration of chemical substance, Gene No. 5726 ([1]; gene group (D), Unigene No. Rn.9939)
+: Behavior of gene caused by administration of chemical substance, Gene No. 2026 [1, 3] | Behavior of gene caused by administration of chemical substance, Gene No. 4973 ([1]; gene group (C), Unigene No. Rn.118529) | Behavior of gene caused by administration of chemical substance, Gene No. 4095 ([1]; gene group (C), Unigene No. Rn.119024) | Behavior of gene caused by administration of chemical substance, Gene No. 6303 ([1]; gene group (C), Unigene No. Rn.123063) | Behavior of gene caused by administration of chemical substance, Gene No. 6026 ([1]; gene group (C), Unigene No. Rn.167685) | Behavior of gene caused by administration of chemical substance, Gene No. 154 ([1]; gene group (C), Unigene No. Rn.185941) | Behavior of gene caused by administration of chemical substance, Gene No. 1993 ([1]; gene group (C), Unigene No. Rn.18728) | Behavior of gene caused by administration of chemical substance, Gene No. 2546 ([1]; gene group (C), Unigene No. Rn.24561) | Behavior of gene caused by administration of chemical substance, Gene No. 1119 ([1]; gene group (C), Unigene No. Rn.9757) | Behavior of gene caused by administration of chemical substance, Gene No. 5634 ([1]; gene group (C), Unigene No. Rn.9862)

ClC(Cl)Cl [TS056, Chloroform]
−: Behavior of gene caused by administration of chemical substance, Gene No. 2045 ([1]; rat, in vivo) | Behavior of gene caused by administration of chemical substance, Gene No. 2203 ([1]; rat, in vivo) | Behavior of gene caused by administration of chemical substance, Gene No. 4218 ([1]; rat, in vivo) | Behavior of gene caused by administration of chemical substance, Gene No. 4846 ([1]; rat, in vivo) | Behavior of gene caused by administration of chemical substance, Gene No. 5600 ([1]; rat, in vivo) | Behavior of gene caused by administration of chemical substance, Gene No. 5726 ([1]; rat, in vivo) | Behavior of gene caused by administration of chemical substance, Gene No. 6182 ([1]; rat, in vivo)
+: Behavior of gene caused by administration of chemical substance, Gene No. 154 ([1]; rat, in vivo) | Behavior of gene caused by administration of chemical substance, Gene No. 533 ([1]; rat, in vivo) | Behavior of gene caused by administration of chemical substance, Gene No. 725 ([1]; rat, in vivo) | Behavior of gene caused by administration of chemical substance, Gene No. 813 ([1]; rat, in vivo) | Behavior of gene caused by administration of chemical substance, Gene No. 893 ([1]; rat, in vivo) | Behavior of gene caused by administration of chemical substance, Gene No. 1119 ([1]; rat, in vivo) | Behavior of gene caused by administration of chemical substance, Gene No. 1131 ([1]; rat, in vivo) | Behavior of gene caused by administration of chemical substance, Gene No. 1163 ([1]; rat, in vivo) | Behavior of gene caused by administration of chemical substance, Gene No. 1334 ([1]; rat, in vivo) | Behavior of gene caused by administration of chemical substance, Gene No. 1494 ([1]; rat, in vivo) | Behavior of gene caused by administration of chemical substance, Gene No. 1562 ([1]; rat, in vivo) | Behavior of gene caused by administration of chemical substance, Gene No. 1741 ([1]; rat, in vivo) | Behavior of gene caused by administration of chemical substance, Gene No. 1993 ([1]; rat, in vivo) | Behavior of gene caused by administration of chemical substance, Gene No. 2026 ([1]; rat, in vivo) | Behavior of gene caused by administration of chemical substance, Gene No. 2494 ([1]; rat, in vivo) | Behavior of gene caused by administration of chemical substance, Gene No. 2546 ([1]; rat, in vivo) | Behavior of gene caused by administration of chemical substance, Gene No. 3776 ([1]; rat, in vivo) | Behavior of gene caused by administration of chemical substance, Gene No. 3929 ([1]; rat, in vivo) | Behavior of gene caused by administration of chemical substance, Gene No. 4095 ([1]; rat, in vivo) | Behavior of gene caused by administration of chemical substance, Gene No. 4973 ([1]; rat, in vivo) | Behavior of gene caused by administration of chemical substance, Gene No. 5634 ([1]; rat, in vivo) | Behavior of gene caused by administration of chemical substance, Gene No. 5878 ([1]; rat, in vivo) | Behavior of gene caused by administration of chemical substance, Gene No. 6026 ([1]; rat, in vivo) | Behavior of gene caused by administration of chemical substance, Gene No. 6303 ([1]; rat, in vivo) | Behavior of gene caused by administration of chemical substance, Gene No. 6620 ([1]; rat, in vivo) | Behavior of gene caused by administration of chemical substance, Gene No. 6742 ([1]; rat, in vivo)
C+: Carcinogenicity [2]
